Measurements: US20260150871A1, “TASTE MODIFYING COMPOSITIONS AND USES THEREOF” (Firmenich Incorporated, priority 2022, published 2026)

Tests used:
Format in all cases: in vivo
Panelists [1] = assay: Umami enhancement of MSG: panel sensory rating of aqueous sodium chloride/MSG samples; details: mean, scale of 0 to 10; for Lasting Umami Intensity: Sample C 3.1; for Saltiness Intensity: Sample C 3.6; for Umami Intensity: Sample C 4.0
Method: A series of test samples and a comparative sample were prepared. The comparative sample (C) contained 0.3 wt % sodium chloride and 0.05 wt % MSG. Two test samples were prepared. Each test sample contained sodium chloride and MSG in the same amounts as the comparative sample plus 2 ppm of TM1 (sample S1) or 5 ppm of TM1 (sample S2). Panelists were asked to rate the intensity of certain sensory features of the samples on a scale of 0 to 10. Higher numbers indicate greater intensity.

Panelists [2] = assay: Flavor modification of chicken broth: panel sensory rating; details: 0.7 wt % sodium chloride, 0.04 wt % MSG, mean, scale of 0 to 10; for Lasting Umami Intensity: Sample C 3.1; for Umami Intensity: Sample C 4.3; for White Meat Intensity: Sample C 4.8; for Saltiness Intensity: Sample C 4.9; for Chicken Flavor Intensity: Sample C 5.3
Method: A series of test samples and a comparative sample were prepared. The comparative sample (C) was a standard reconstituted chicken broth solution containing 0.7 wt % sodium chloride and 0.04 wt % MSG. Two test samples were prepared. Each test sample contained chicken broth, sodium chloride, and MSG in the same amounts as the comparative sample plus 3 ppm of TM1 (sample S1) or 5 ppm of TM1 (sample S2). Panelists were asked to rate the intensity of certain sensory features of the samples on a scale of 0 to 10. Higher numbers indicate greater intensity.

Panelists [3] = assay: MSG reduction with soy-based vegan chicken nugget: panel sensory rating; details: Sample S1: 5 ppm TM1 in soy-based vegan chicken nugget, 1.68 wt % flavoring (chicken), 0.4 wt % MSG, 0.03 wt % purinic ribonucleotide, mean, scale of 0 to 10
Method: (§1) A test sample and a comparative sample were prepared. The comparative (sample C) was a standard soy-based vegan chicken nugget having 1.68 wt % flavoring (chicken), 0.4 wt % MSG, and 0.03 wt % purinic ribonucleotide. The test sample contained flavoring, MSG, and purinic ribonucleotide in the same amounts as the comparative sample plus 5 ppm of TM1 (sample S1). Panelists were asked to rate the intensity of certain sensory features of the samples on a scale of 0 to 10. Higher numbers indicate greater intensity.

Panelists [4] = assay: MSG reduction with potato crisp: panel sensory rating; details: Sample S1: 5 ppm TM1 on potato crisp, 2 wt % flavoring (sour cream and onion), 0.03 wt % MSG, 0.008 wt % purinic ribonucleotide, mean, scale of 0 to 10
Method: as §1, with “potato crisp” for “soy-based vegan chicken nugget”, “2” for “1.68”, “(sour cream and onion), 0.03” for “(chicken), 0.4”, “0.008” for “0.03”, “ribonucleotide. This reflects a 75% reduction of the standard amount of MSG used in such products (0.12 wt %).” for “ribonucleotide.”

[5] = Sample S1: 2 ppm TM1 + 0.3 wt % sodium chloride + 0.05 wt % MSG
[6] = Sample S2: 5 ppm TM1 + 0.3 wt % sodium chloride + 0.05 wt % MSG, * significant vs C
[7] = Sample S1: 3 ppm TM1 in chicken broth, * significant vs C
[8] = Sample S2: 5 ppm TM1 in chicken broth, * significant vs C
[9] = Sample S2: 5 ppm TM1 in chicken broth
[10] = Sample C 2.1, * significant vs C

For C/C(=C\CO)C(=O)NCCCCNC(=O)/C=C/c1ccccc1 [TM1, (E)-N-(4-cinnamamidobutyl)-4-hydroxy-2-methylbut-2-enamide], the “Lasting Umami Intensity” value (Panelists [1]; Sample S1: 2 ppm TM1 + 0.3 wt % sodium chloride + 0.05 wt % MSG, * significant vs C) was 4.2*, the “Saltiness Intensity” value (Panelists [1]; [5]) was 3.8 and the “Umami Intensity” value (Panelists [1]; [5]) was 4.8. For the same compound, the “Lasting Umami Intensity” value (Panelists [1]; [6]) was 5.4*, the “Saltiness Intensity” value (Panelists [1]; Sample S2: 5 ppm TM1 + 0.3 wt % sodium chloride + 0.05 wt % MSG) was 3.8 and the “Umami Intensity” value (Panelists [1]; [6]) was 6.0*. For the same compound, the “Lasting Umami Intensity” value (Panelists [2]; [7]) was 4.2*, the “Umami Intensity” value (Panelists [2]; [7]) was 5.8* and the “White Meat Intensity” value (Panelists [2]; [7]) was 5.8*. For the same compound, the “Saltiness Intensity” value (Panelists [2]; Sample S1: 3 ppm TM1 in chicken broth) was 5.2, the “Chicken Flavor Intensity” value (Panelists [2]; [7]) was 6.0* and the “Lasting Umami Intensity” value (Panelists [2]; [8]) was 5.4*. The “Umami Intensity” value (Panelists [2]; [8]) was 6.2*, the “White Meat Intensity” value (Panelists [2]; [9]) was 4.8 and the “Saltiness Intensity” value (Panelists [2]; [9]) was 4.8. For the same compound, the “Chicken Flavor Intensity” value (Panelists [2]; [9]) was 5.8, the “Saltiness Intensity” value (Panelists [3]; Sample C 4.6) was 4.4 and the “Umami Intensity” value (Panelists [3]; Sample C 5.1, * significant vs C) was 5.8*. For the same compound, the “Lasting Umami Intensity” value (Panelists [4]; [10]) was 2.8*, the “Sour Intensity” value (Panelists [4]; [10]) was 2.9* and the “Saltiness Intensity” value (Panelists [4]; Sample C 2.9) was 3.1. The “Umami Intensity” value (Panelists [4]; Sample C 3.0, * significant vs C) was 3.6*.
